In ChEMBL document CHEMBL5584304, “Unlocking the Potential of Glutinol: Structural Diversification and Antifungal Activity against Phytopathogenic Fusarium Strains” (2024):

Tests used:
Type in all cases: functional
Conditions in all cases: time 24-48 hrs
Fusarium solani = assay: Antifungal activity against Fusarium solani measured after 24 to 48 hrs by turbidimetry
Fusarium graminearum = assay: Antifungal activity against Fusarium graminearum measured after 24 to 48 hrs by turbidimetry
Fusarium tucumaniae = assay: Antifungal activity against Fusarium tucumaniae measured after 24 to 48 hrs by turbidimetry

SMILES	MIC (Fusarium solani)	MIC (Fusarium graminearum)	MIC (Fusarium tucumaniae)
CC1(C)CC[C@]2(C)CC[C@]3(C)[C@H]4CC=C5[C@@H](Cc6c([nH]c7ccccc67)C5(C)C)[C@]4(C)CC[C@@]3(C)[C@@H]2C1	> 50 µg/mL	> 50 µg/mL	> 50 µg/mL
C=C(C)C1=CC[C@H]2[C@@](C)(CC[C@@]3(C)[C@@H]4CC(C)(C)CC[C@]4(C)CC[C@]23C)[C@@H]1CCC#N	59.2 µM	> 50 µg/mL	59.2 µM
CC1(C)CC[C@]2(C)CC[C@]3(C)[C@H]4CC=C5[C@@H](CC(C=O)=C(O)C5(C)C)[C@]4(C)CC[C@@]3(C)[C@@H]2C1	55.2 µM	110 µM	110 µM
CC1(C)CC[C@]2(C)CC[C@]3(C)c4ccc5c(c4CC[C@@]3(C)[C@@H]2C1)C=CC(=O)C5(C)C	> 50 µg/mL	123 µM	123 µM
CC1(C)CC[C@]2(C)CC[C@]3(C)[C@H]4CC=C5[C@@H](Cc6cnn(-c7nc8ccccc8s7)c6C5(C)C)[C@]4(C)CC[C@@]3(C)[C@@H]2C1	43 µM	85.9 µM	85.9 µM
CC1(C)CC[C@]2(C)CC[C@]3(C)[C@@H](CC=O)[C@](C)([C@@H]4CC[C@H](O)C(C)(C)C4=O)CC[C@@]3(C)[C@@H]2C1	109 µM	54.5 µM	109 µM
CC1(C)CC[C@]2(C)CC[C@]3(C)[C@H]4CC=C5[C@@H](Cc6sc(N)nc6C5(C)C)[C@]4(C)CC[C@@]3(C)[C@@H]2C1	> 50 µg/mL	> 50 µg/mL	107 µM
CC1(C)CC[C@]2(C)CC[C@]3(C)[C@H]4CC=C5C(=CCC(=O)C5(C)C)[C@]4(C)CC[C@@]3(C)[C@@H]2C1	> 50 µg/mL	118 µM	> 50 µg/mL
CC1(C)CC[C@]2(C)CC[C@]3(C)[C@H]4C=CC5=C(C=C(Br)C(=O)C5(C)C)[C@]4(C)CC[C@@]3(C)[C@@H]2C1	> 50 µg/mL	> 50 µg/mL	100 µM
CC1(C)CC[C@]2(C)CC[C@]3(C)[C@H]4CC=C5[C@@H](Cc6cnoc6C5(C)C)[C@]4(C)CC[C@@]3(C)[C@@H]2C1	55.8 µM	> 50 µg/mL	55.8 µM
CC1(C)CC[C@]2(C)CC[C@]3(C)[C@H]4CC=C5C(C)(C)C(=O)CC[C@@]5(O)[C@]4(C)CC[C@@]3(C)[C@@H]2C1	56.7 µM	> 50 µg/mL	113 µM
CC1(C)CC[C@]2(C)CC[C@]3(C)[C@H]4CC=C5[C@@H](CC(Br)(Br)C(=O)C5(C)C)[C@]4(C)CC[C@@]3(C)[C@@H]2C1	> 50 µg/mL	> 50 µg/mL	85.9 µM
CC1(C)CC[C@]2(C)CC[C@]3(C)c4ccc5c(c4CC[C@@]3(C)[C@@H]2C1)C=C(Br)C(=O)C5(C)C	> 50 µg/mL	51.7 µM	51.7 µM
CC1(C)CC[C@]2(C)CC[C@]3(C)[C@H]4CC=C5C(=CC(=O)C(=O)C5(C)C)[C@]4(C)CC[C@@]3(C)[C@@H]2C1	114 µM	> 50 µg/mL	> 50 µg/mL
CC1(C)CC[C@]2(C)CC[C@]3(C)[C@H]4C=CC5=C(C=CC(=O)C5(C)C)[C@]4(C)CC[C@@]3(C)[C@@H]2C1	> 50 µg/mL	> 50 µg/mL	119 µM
CC1(C)CC[C@]2(C)CC[C@]3(C)[C@H]4CC=C5C(=Cc6n[nH]c(=S)nc6C5(C)C)[C@]4(C)CC[C@@]3(C)[C@@H]2C1	25.4 µM	50.8 µM	102 µM
CC1(C)CC[C@]2(C)CC[C@]3(C)[C@H]4CC=C5[C@@H](CC(Br)C(=O)C5(C)C)[C@]4(C)CC[C@@]3(C)[C@@H]2C1 (stereo partly drawn)	> 50 µg/mL	> 50 µg/mL	> 50 µg/mL
CC(=O)O[C@H]1CC[C@@H]([C@]2(C)CC[C@@]3(C)[C@@H]4CC(C)(C)CC[C@]4(C)CC[C@]3(C)[C@H]2CC=O)C(=O)C1(C)C	49.9 µM	99.8 µM	49.9 µM
CC1(C)CC[C@]2(C)CC[C@]3(C)[C@H]4CC=C5C(=CC6=NC(N)=N[C@]6(O)C5(C)C)[C@]4(C)CC[C@@]3(C)[C@@H]2C1	> 50 µg/mL	> 50 µg/mL	108 µM
Cc1cc2c(c(C)c1O)CC[C@H]1[C@@]2(C)CC[C@@]2(C)[C@@H]3CC(C)(C)CC[C@]3(C)CC[C@]12C	> 50 µg/mL	> 50 µg/mL	118 µM
CC1(C)CC[C@]2(C)CC[C@]3(C)[C@H]4CC=C5C(=Cc6nc7ccccc7nc6C5(C)C)[C@]4(C)CC[C@@]3(C)[C@@H]2C1	> 50 µg/mL	> 50 µg/mL	98.2 µM
COC(=O)Nc1nc2ccccc2[nH]1 [CARBENDAZIM]	4.09 µM	8.18 µM	4.09 µM
N#Cc1c[nH]cc1-c1cccc2c1OC(F)(F)O2 [FLUDIOXONIL]	12.6 µM	17.8 µM	17.8 µM
CC1(C)CC[C@]2(C)CC[C@]3(C)[C@H]4CC=C5[C@@H](CC[C@H](O)C5(C)C)[C@]4(C)CC[C@@]3(C)[C@@H]2C1 [GLUTINOL]	> 50 µg/mL	> 50 µg/mL	117 µM
CC1(C)CC[C@]2(C)CC[C@]3(C)[C@H]4CC=C5[C@@H](CCC(=O)C5(C)C)[C@]4(C)CC[C@@]3(C)[C@@H]2C1 [GLUTINONE]	> 50 µg/mL	118 µM	118 µM
COC(=O)N(OC)c1ccccc1COc1ccn(-c2ccc(Cl)cc2)n1 [PYRACLOSTROBIN]	1.42 µM	1.01 µM	1.01 µM
